This assay has as its target T1, human vitamin D receptor (VDR) (Homo sapiens, UniProt P11473).
T1 construct: expressed in transfected cells; host or cells: HEK293 cells (ATCC), transient polyethylene-imine-based transfection
T1 sequence (P11473 127-423 limits assumed): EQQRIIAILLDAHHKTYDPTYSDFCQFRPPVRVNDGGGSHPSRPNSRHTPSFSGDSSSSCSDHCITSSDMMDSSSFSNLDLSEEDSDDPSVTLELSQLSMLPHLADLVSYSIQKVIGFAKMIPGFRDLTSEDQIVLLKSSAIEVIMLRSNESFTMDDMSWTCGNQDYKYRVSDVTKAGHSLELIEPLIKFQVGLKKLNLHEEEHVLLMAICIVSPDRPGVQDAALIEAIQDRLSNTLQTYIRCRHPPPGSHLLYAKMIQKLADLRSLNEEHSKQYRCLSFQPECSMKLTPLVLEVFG
Nature of the assay: Human vitamin D receptor (VDR) agonist activity, GAL4-VDR LBD luciferase transactivation assay in HEK293 cells. The class given is cell-based. As to conditions: transiently transfected HEK293 cells, VDR LBD-GAL4 DBD hybrid receptor, pFR-Luc luciferase reporter, 16 h incubation; read-out: Effective concentrations of half maximal activation (EC50). The text has this:
By way of example, the human vitamin D receptor (VDR) agonist activity of the claimed compounds can be tested using a cell based transactivation assay in an eukaryotic cell line. After a co-transfection, using a reporter plasmid construct and a hybrid receptor construct containing the ligand-binding domain of the human VDR linked to the DNA-binding domain of the yeast transcription factor GAL4, the cultured cells were stimulated by the VDR agonists. The hybrid VDR-GAL4 receptor binds the VDR agonists and transactivates luciferase reporter expression through the GAL4-response elements in the promoter of the luciferase gene (reporter construct). The VDR agonist binding and transactivation is determined by measuring the luciferase luminescence activity. The effective concentration of half maximal activation (EC50) was determined for the VDR agonists by means of dose-response experiments. The details of the protocol method of this test according to the invention are described in the example section. […]

Turning to `CC/C(=C\C=C\C(O)(C(F)(F)F)C(F)(F)F)c1cccc(CCc2ccc(CO)c(C(C)O)c2)c1` (racemic) [I-a, (3E,5E)-1,1,1-trifluoro-6-(3-(3-(1-hydroxyethyl)-4-(hydroxymethyl)phenethyl)phenyl)-2-(trifluoromethyl)octa-3,5-dien-2-ol], the EC50 was determined as 8 nM.

The record behind these values is patent US10570075B2, “Compounds” (DSM IP ASSETS B.V., priority 2015, dated 2020).
